# From patent US12544375B2, “Small molecule therapeutic for parkinson's disease paired with a biomarker of therapeutic activity” (The Board of Trustees of the Leland Stanford Junior …, priority 2019, dated 2026)
# What was measured:
# Miro1 = target: T1, Miro1 (Homo sapiens, UniProt Q8IXI2); assay: GTPase activity of Miro1 IPed from fibroblasts; type: biochemical; conditions: PD-2 fibroblasts, basal or depolarized condition
# T1 construct: We applied compound 3 to fibroblasts from one sporadic PD patient (PD-2); endogenous in cells; host or cells: human skin fibroblasts (PD-2, Healthy-1 and further PD/control lines)
# Protocol: (§1) FIG. 8. Related to FIG. 2-4. Miro1 Reducer in Human Cell and Fly Models. (A) Fibroblasts from Healthy-1 and PD-2 were treated, lysed, and blotted as indicated. Band intensities are normalized to those of GAPDH from the same blots and compared to “Healthy-1, no treatment”. n=4 independent experiments. (B) Fibroblasts from PD-2 were treated and immunostained as indicated. The intensity was quantified for each cell across 264-320 cells from 3 independent experiments, compared to “no treatment”. (C) Fibroblasts were treated, immunoprecipitated (IPed) with anti-Miro1, and blotted as indicated. Similar results were observed twice. (D) Similar as in (C), fibroblasts were treated as indicated, and IPed with anti-Miro1. The GTPase activity of the IPed Miro1 protein was measured as described in Method. […] The MitoSox intensity was quantified for each cell across 106-161 cells from 3 coverslips. […] The TMRM intensity was measured for each cell across 48-60 cells from 3 independent experiments, and expressed as a fraction of the mean of “Healthy-1, no treatment”. […] The movement (the intensity of non-yellow) was quantified for each cell as described in (Tsai et al., 2014) across 22-31 cells from 3 transfections. […] (1) Left: The percentage of TH-positive iPSC-derived neurons out of total cells (Dapi-positive) is calculated after immunocytochemistry under 20× as described in FIG. 3. […]
# PINK1 null flies = assay: Non-progressive phenotypes of PINK1 null flies (ATP levels, thoracic indentation, wing posture, flying ability); type: in vivo, fly; conditions: PINK1 null flies fed from adult onset with 2.5 μM
# Protocol: as §1
# T1 sequence (Q8IXI2 whole entry): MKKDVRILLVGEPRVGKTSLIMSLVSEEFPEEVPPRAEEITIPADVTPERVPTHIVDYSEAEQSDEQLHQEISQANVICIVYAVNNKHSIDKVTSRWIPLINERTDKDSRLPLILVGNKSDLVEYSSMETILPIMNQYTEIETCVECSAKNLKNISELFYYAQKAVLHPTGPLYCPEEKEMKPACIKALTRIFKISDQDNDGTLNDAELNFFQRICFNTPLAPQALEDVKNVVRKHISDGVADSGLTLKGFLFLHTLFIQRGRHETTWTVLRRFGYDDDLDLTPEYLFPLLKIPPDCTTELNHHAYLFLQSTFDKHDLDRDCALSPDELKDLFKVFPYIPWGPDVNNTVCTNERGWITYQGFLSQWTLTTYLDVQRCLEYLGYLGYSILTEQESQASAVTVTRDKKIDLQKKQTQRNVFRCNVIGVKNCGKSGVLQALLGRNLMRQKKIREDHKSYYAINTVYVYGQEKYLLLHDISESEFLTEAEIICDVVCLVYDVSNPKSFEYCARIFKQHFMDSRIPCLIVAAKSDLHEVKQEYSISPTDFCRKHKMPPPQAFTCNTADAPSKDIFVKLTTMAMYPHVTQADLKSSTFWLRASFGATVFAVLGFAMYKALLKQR
compound,measurement,setting,value
O=C(Nc1ccc(Nc2cc(-n3ccnc3)ncn2)cc1)Nc1cccc(F)c1 [Miro1 Reducer],GTPase activity of IPed Miro1,Miro1,did not affect
same,"non-progressive phenotypes (lowered ATP levels, thoracic indentation, abnormal wing posture, defective flying ability)",PINK1 null flies,did not improve
